According to article PMC4145316, “Cytotoxic and Apoptosis-Inducing Activity of Triterpene Glycosides from Holothuria scabra and Cucumaria frondosa against HepG2 Cells” (Marine Drugs, 2014):

Tests used:
[1] = system: human cervical cancer (HeLa) cells; test: MTT cytotoxicity assay, HeLa cells; assay type: cell-based; conditions: means ± SD (n = 3)
Description: (§1) Human hepatoma (HepG2), human cervical cancer (HeLa), human leukemia (K562) and human liver (HL-7702) cells were obtained by Shanghai Institute of Biochemistry and Cell Biology, and maintained in the logarithmic phase of growth in RPMI-1640 complete medium supplemented with 2 mM L-glutamine (Sigma Chemical Co., Saint Louis, MO, USA), 100 IU/mL penicillin, 100 μg/mL streptomycin and 10% FCS at 37 °C under humidified air with 5% CO2.
(§2) The effect of compounds 1–13 on the viability of HepG2, HeLa, K562 and HL-7702 cells was determined by MIT assay as described previously. Briefly, the tumor and normal cells were seeded at 1 × 10^4 cells/well in a 96-well microtiter plate and incubated at 37 °C in a humidified atmosphere with 5% CO2. After 24 h, compounds 1–13, the positive drug CDDP or RPMI-1640 medium were added into each well, and the plates were incubated at 37 °C for the indicated time. Each concentration was repeated four wells. 50 μL of MTT solution (2 mg/mL) was added to each well 4 h before incubation end, and incubated further for 4 h. The plates were centrifuged (1400× g, 5 min) and the untransformed MTT was removed carefully by pipetting. To each well, 150 μL of DMSO was added and the absorbance was evaluated in an ELISA reader at 570 nm after 15 min. The inhibitory rates and 50% inhibitory concentrations (IC50) values towards cell viability were calculated by NDST software. Each test was performed in triplicate.

[2] = system: Bcl-2 and Bax mRNA in HepG2 cells; test: RT-PCR, Bcl-2/Bax mRNA expression ratio; assay type: cell-based, human; conditions: time- and concentration-dependent
Description: The Bcl-2 family members can alter the permeability of mitochondrial membrane, and release cytochrome c or activate caspase cascade. There are two classes of regulatory proteins in the Bcl-2 family that have opposite effects on apoptosis: The anti-apoptotic members (Bcl-2 and Bcl-XL) protect cells against some forms of apoptosis, whereas the pro-apoptotic members (Bax and Bcl-xS) promote programmed cell death. As decrease of the ratio between anti-apoptotic gene Bcl-2 and pro-apoptotic gene Bax mRNA expression is widely considered as a hallmark of apoptosis, the expression level of Bcl-2 and Bax mRNA in HepG2 cells were first detected.
Figure 5 Effect of 1 on the ratio of expression level between Bcl-2 and Bax mRNA in HepG2 cells. HepG2 cells were incubated with 1 at the various concentrations for the different time. The mRNA expression levels of β-actin, Bcl-2, and Bax were detected by RT-PCR using specific primers. The values are presented as means ± SD (n = 3). […]
Total RNA was extracted with TRIzol reagent (Invitrogen, Grand Island, NY, USA) according to the manufacturer’s instructions, and reverse transcription was performed as previously. […] Semi-quantitative RT-PCR was performed using β-actin as an internal control to normalize gene expression for the PCR templates. […] The size of the amplified fragments was determined by comparison with a standard DNA marker.

[3] = system: HepG2 cells; test: HepG2 cell viability, MTT, 6 h and 12 h; assay type: cell-based, human
Description: To determine the effects of 1 on the viability of HepG2 cell, the cells were cultured with 1 at different concentrations for 6 h and 12 h, and cell viability was measured using MTT assay.
Figure 2 Effect of 1 on cell viability of HepG2 cells. HepG2 cells were treated with the various concentrations of 1 for 6 and 12 h, and cell viability was measured using the MTT assay. The values are presented as means ± SD (n = 5).
as §2

[4] = system: Top2a; design: method as in PMID 19773249; conditions: interference in DNA binding, impairment of Top2-mediated DNA cleavage and relegation; cited from earlier work
[5] = system: Caspase-3, Caspase-8 and Caspase-9 mRNA in HepG2 cells; test: RT-PCR, Caspase-3, Caspase-8 and Caspase-9 mRNA expression; assay type: cell-based, human
Description: Caspases play an important role in cell apoptosis. Activation of caspase appears to be directly responsible for many molecular and structural changes in apoptosis. The caspase-dependent process is associated with two pathways of anticancer drug-induced apoptosis, the extrinsic (death receptor) pathway and the intrinsic (mitochondrial) pathway. The extrinsic pathway is initiated by death ligands, such as FasL, leading to cleavage of pro-Caspase-8 to its active form, which subsequently activates downstream effectors such as Caspase-3. The intrinsic pathway is characterized by mitochondria dysfunction, resulting in the reduction of mitochondrial transmembrane potentials, mitochondrial translocation of the pro-apoptotic Bax protein, cytochrome c release and activation of downstream effector caspases such as Caspase-9 [39, 40]. Caspase-3 is one of the downstream effectors of the caspase family, and is considered to involve both the mitochondrial apoptotic pathway and the death receptor pathway. […]
Figure 6 Effects of 1 on the mRNA expression level of Caspase-3, Caspase-8 and Caspase-9 in HepG2 cells. […] The mRNA expression levels of β-actin, Caspase-3, Caspase-8 and Caspase-9 were detected by RT-PCR using specific primers. […]
Total RNA was extracted with TRIzol reagent (Invitrogen, Grand Island, NY, USA) according to the manufacturer’s instructions, and reverse transcription was performed as previously. […] Semi-quantitative RT-PCR was performed using β-actin as an internal control to normalize gene expression for the PCR templates. The PCR products were analyzed by electrophoresis on a 1.5% agarose gel containing goldview (5 μL/100 mL), and the amplified bands were visualized and photographed using JS-680B Gel Documentation and Analysis System (Shanghai Peiqing Science and Technology Co., Ltd., Shanghai, China). The size of the amplified fragments was determined by comparison with a standard DNA marker.

[6] = system: human leukemia (K562) cells; test: MTT cytotoxicity assay, K562 cells; assay type: cell-based; conditions: means ± SD (n = 3)
Description: as §1, §2

[7] = system: human hepatoma (HepG2) cells; test: MTT cytotoxicity assay, HepG2 cells; assay type: cell-based; conditions: means ± SD (n = 3)
Description: as §1, §2

[8] = system: human gastric cancer MKN-45 cells; conditions: read-out: IC50 against MKN-45 cells; cited from earlier work
[9] = no difference among concentrations at 2 h

Which results are given for COC1C(O)C(CO)OC(OC2C(O)C(CO)OC(OC3C(C)OC(OC4C(OC5CCC6(C)C7=CC(O)C89C(=O)OC(C)(CCCC(C)C)C8(O)CCC9(C)C7CCC6C5(C)C)OCC(OS(=O)(=O)O)C4O)C(O)C3O)C2O)C1O.[Na+] (stereo not drawn) [Echinoside A (1), Echinoside A]?
IC50 (μg/mL) HeLa [1]: 1.25 ± 0.16 µg/mL; ratio of Bcl-2/Bax mRNA expression [2]: significantly decreased; cell viability of HepG2 cells at 2.25 μg/mL ([3]; 2.25 μg/mL): hardly influenced cell viability; cell viability of HepG2 cells at 3 μg/mL ([3]; 3 μg/mL): completely inhibited; effective concentration range for inhibiting survival of HepG2 cells ([3]; MTT): 2.25−3 μg/mL; Top2 inhibition [4]: non-intercalative Top2 inhibitor; expression level of Caspase-8 mRNA [5, 9]: significantly up-regulated; expression level of Caspase-9 mRNA [5, 9]: significantly up-regulated; expression level of Caspase-3 mRNA ([5]; time- and dose-dependent): markedly up-regulated; IC50 (μg/mL) K562 [6]: 1.61 ± 0.11 µg/mL; IC50 (μg/mL) HepG2 [7]: 1.50 ± 0.08 µg/mL; IC50 [8]: 1.86 µM
